Experimental data taken from PMC3489612, “Exploring flubendazole formulations for use in sheep. Pharmacokinetic evaluation of a cyclodextrin-based solution” (BMC Veterinary Research, 2012).
≈ marks a conversion by molar mass, not a printed value.

Columns and labels:
[1] = In vitro aqueous solubility of BZD compounds with or without HPßCD (10%); conditions: for aqueous solubility: 25°C, n = 6, mean ± SD; for HPßCD-induced solubility increasing effect: pH 1.2, with versus without HPßCD (10%); for solubility at 2 weeks: 25 °C, thermodynamic from solid
Protocol: BZD solubilities were determined in aqueous solutions at pH values of 1.2 (HCl/KCl) and 7.4 (KH2PO4) with or without HPßCD (10%). An excess amount of ABZ, ABZSO, MBZ, OFZ or FLBZ was suspended in glass tubes containing 10 mL of each medium. The tubes were placed in a water bath at 25°C with a constant shaken rate of 100 strokes/min for two weeks (Yamato BT-31, Yamato Scientific Co., Japan). […] The supernatants were collected and filtered through a 0.2 μm filter (Whatman Inc., NJ, USA). After filtration, samples were analyzed for drug quantification by HPLC following the method described below.
Experimental and fortified samples of plasma and abomasal fluid were analyzed for FLBZ, R-FLBZ, H-FLBZ and the internal standard (OBZ) by HPLC following the method described by Moreno et al.. Briefly, 50 μL of sample were injected in a Shimadzu 10 A HPLC System (Kyoto, Japan), using an UV detector set at 292 nm, an autosampler and a controller (Shimadzu Class LC10, Kyoto, Japan). Elution from the stationary phase (Selectosil C18 column, 5 μm, 250 × 4.6 mm, Phenomenex®, CA, USA) has been carried out at a flow rate of 1.2 mL/min, using a mixture of acetonitrile:potassium phosphate buffer (25 mM, pH 5.3) (40:60) as a mobile phase, during 13 min at 30°C.

[2] = in vivo
Protocol: (§1) FLBZ-solution (2% w/v) was prepared by dissolution of 2 g of pure FLBZ and 10 g of HPßCD in 100 mL of dionized water (pH 1.2). The pH was adjusted using hydrochloric acid (25 mM). The formulation was shaken during 48 h (40°C) and then was filtrated through a 0.45 μm filter (Whatman, NJ, USA). The final FLBZ concentration was confirmed by HPLC (n = 4). The FLBZ suspension (2% w/v) was performed by addition of 2 g FLBZ pure standard in a suspension of CMC (0.5% w/v) prepared with deionized water (100 mL, pH = 6.0) under shaking (24 h). The FLBZ suspension was vigorously shaken before its administration to sheep.
(§2) Six (6) parasite-free Corriedale male sheep (average weight: 50.6 ± 6.0 kg) were used in this experiment. Animals were kept indoors with commercial balanced food and water ad libitum for two months prior and during the trial. Four (4) animals were surgically fitted with a permanent cannula in the pyloric region of the abomasum following an adaptation of the technique described by Komarek. A 6-week post-surgery recovery period was allowed before starting the pharmacokinetic trials. […]
(§3) Experimental and fortified samples of plasma and abomasal fluid were analyzed for FLBZ, R-FLBZ, H-FLBZ and the internal standard (OBZ) by HPLC following the method described by Moreno et al.. […]

[3] = Abomasal fluid pharmacokinetics after intraruminal (i.r.) administration of FLBZ formulations (Experiment 1); assay type: in vivo; conditions: sheep, after i.r. FLBZ administration as both formulations
Protocol: as §1, §2, §3

parasite motility = tested on: parasite motility; parameters: method as in PMID 9421720; conditions: cited from earlier work
ß-tubulin = tested on: ß-tubulin; parameters: method as in PMID 15463312; conditions: cited from earlier work
[4] = aqueous solution (HCl/KCl) with 10% HPβCD, pH 1.2, aqueous with cosolvent or surfactant or cyclodextrin
[5] = aqueous solution (HCl/KCl) without HPβCD, pH 1.2, simulated gastric fluid
[6] = aqueous solution (KH2PO4) with 10% HPβCD, pH 7.4, aqueous with cosolvent or surfactant or cyclodextrin

CCC[S+]([O-])c1ccc2[nH]c(NC(=O)OC)nc2c1 (centres unmarked) [Albendazole sulphoxide, albendazole sulphoxide]
highest aqueous solubility ([1]; pH 1.2 (value of Table 1 with HPßCD)): 6600 ± 1300 µg/mL
aqueous solubility ([1]; pH 1.2, with HPßCD (10%)): 6637.7 ± 1370.2 µg/mL (≈ 23600 µM)
HPßCD-induced solubility increasing effect [1]: 0.7 fold
aqueous solubility ([1]; pH 1.2, without HPßCD): 3818.6 ± 202.1 µg/mL (≈ 13600 µM)
aqueous solubility ([1]; pH 7.4, with HPßCD (10%)): 871.9 ± 129.3 µg/mL (≈ 3100 µM)
aqueous solubility ([1]; pH 7.4, without HPßCD): 83.6 ± 7.6 µg/mL (≈ 297 µM)

Nc1nc2ccc(C(=O)c3ccc(F)cc3)cc2[nH]1 [H-FLBZ]
time of detection in plasma (low concentrations) [2]: 18 to 48 h

CCCSc1ccc2nc(NC(=O)OC)[nH]c2c1 [Albendazole]
solubility at 2 weeks ([1]; pH 1.2, aqueous with cosolvent or surfactant or cyclodextrin): 921 ± 347 µg/mL (≈ 3470 µM)
solubility at 2 weeks ([1]; pH 1.2, simulated gastric fluid): 406 ± 53.4 µg/mL (≈ 1530 µM)
solubility at 2 weeks ([1]; pH 7.4, aqueous buffer): 4.6 ± 1.3 µg/mL (≈ 17.3 µM)
solubility at 2 weeks ([1]; pH 7.4, aqueous with cosolvent or surfactant or cyclodextrin): 43 ± 8.3 µg/mL (≈ 162 µM)
HPßCD-induced solubility increasing effect [1]: 1.3 fold

COC(=O)Nc1nc2ccc([S+]([O-])c3ccccc3)cc2[nH]1 (centres unmarked) [Oxfendazole, oxfendazole]
solubility at 2 weeks [1, 4]: 1900 ± 606 µg/mL (≈ 6030 µM)
solubility at 2 weeks [1, 5]: 420 ± 29.2 µg/mL (≈ 1330 µM)
solubility at 2 weeks [1, 6]: 348 ± 46.8 µg/mL (≈ 1100 µM)
HPßCD-induced solubility increasing effect [1]: 35 fold

COC(=O)Nc1nc2ccc(C(O)c3ccc(F)cc3)cc2[nH]1 (centres unmarked) [R-FLBZ, reduced flubendazole]
time of detection in abomasal fluid post-treatment [3]: up to 96 h

COC(=O)Nc1nc2cc(C(=O)c3ccc(F)cc3)ccc2[nH]1 [Flubendazole]
solubility at 2 weeks [1, 4]: 2250 ± 552 µg/mL (≈ 7190 µM)
solubility at 2 weeks [1, 5]: 29.6 ± 2.8 µg/mL (≈ 94.5 µM)
solubility at 2 weeks [1, 6]: 164 ± 120 µg/mL (≈ 523 µM)
solubility at 2 weeks ([1]; aqueous solution (KH2PO4) without HPβCD, pH 7.4, aqueous buffer): 5.8 ± 7 µg/mL (≈ 18.5 µM)
potency in parasite motility test (parasite motility): high potency
affinity binding for ß-tubulin (ß-tubulin): high affinity binding
